Where two headings read alike, the source gives them in different places.
Assays:
[1] = system: RSV B (Wash/18537 strain); test: In vitro CPE (CytoPathic Effect) inhibition effect evaluation test, RSV type B; type: cell-based
Procedure, shortened: (§1)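 HEp-2 cells (2.4×10^5 cells/mL, 2% FBS E-MEM) were infected with RSV alongside 3-fold compound dilutions and incubated at 37 °C, 4 days for A2 and 5 days for B Wash/18537. Viable cells quantified by CellTiter-Glo 2.0 luminescence; EC50 by nonlinear regression as 50% CPE inhibition.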

RSV A2 strain = test: In vitro CPE (CytoPathic Effect) inhibition effect evaluation test, RSV type A; type: cell-based
Procedure, shortened: as §1

[2] = human respiratory syncytial virus, inhibitory effect against RSV type B, CPE inhibition, read-out: EC50
[3] = human respiratory syncytial virus, inhibitory effect against RSV type A (RSV A2 strain), HEp-2 cells, CPE inhibition, read-out: EC50
[4] = human respiratory syncytial virus, HEp-2, 120 h, HEp-2 cells, RSV B (Wash/18537 strain), 5 days, CellTiter-Glo, read-out: EC50, inhibitory effect against RSV type B (CPE inhibition)
[5] = human respiratory syncytial virus, HEp-2, 96 h, read-out: EC50, inhibitory effect against RSV type A (CPE inhibition)

SMILES	EC50 [1, 2] [nM]	EC50 (RSV A2 strain; [3]) [nM]	further results
O=C(NC1(C(=O)O)C2CC3CC(C2)CC1C3)c1cnc(N2CC3(CCCC3)c3cc(OC4CCN(C5CC(F)(F)C5)CC4)ccc32)nc1C(F)(F)F (stereo not shown) [Compound I-502]	10 to 100	< 10	–
CC(F)(F)c1nc(N2CC3(CCCCC3)c3cc(O[C@H]4CC[C@H](N5CC(F)(F)C5)CC4)ncc32)ncc1C(=O)NC1(C(=O)O)C2CC3CC(C2)CC1C3 (stereo partly shown) [Compound I-555]	10 to 100	< 10	–
COc1ccc2c(c1)C1(CCOCC1)CN2c1ncc(C(=O)NC2(C(=O)O)C3CC4CC(C3)CC2C4)c(C(F)(F)F)n1 (stereo not shown) [Compound I-80]	–	–	EC50 ([1]; inhibitory effect against RSV type B, CPE inhibition, read-out: EC50): < 10 nM; EC50 (RSV A2 strain; inhibitory effect against RSV type A (RSV A2 strain), HEp-2 cells, CPE inhibition, read-out: EC50): < 10 nM
O=C(NC1(C(=O)O)C2CC3CC(C2)CC1C3)c1cnc(N2CC3(CCCCC3)c3cc(OC4CCN(CC(F)(F)F)C4)ccc32)nc1C(F)(F)F (stereo not shown) [Compound I-517]	10 to 100	< 10	–
COC[C@@H](C)n1cc(-c2ncc(C(=O)NC3(C(=O)O)C4CC5CC(C4)CC3C5)c(C(F)(F)F)n2)c2ccc(OC3CCN(CC(C)(F)F)CC3)cc21 (stereo partly shown) [Compound I-576]	< 10	< 10	–
CCC1(CC)CN(c2ncc(C(=O)NC3(C(=O)O)C4CC5CC(C4)CC3C5)c(C(C)(F)F)n2)c2ccc(OC3CCN(c4ncc(F)cn4)CC3)cc21 (stereo not shown) [Compound I-588]	< 10	< 10	–
O=C(NC1(C(=O)O)C2CC3CC(C2)CC1C3)c1cnc(N2CC3(CCCCC3)c3cc(OC4CC5(CCN(CC(F)(F)F)CC5)C4)ccc32)nc1C(F)(F)F (stereo not shown) [Compound I-473]	100 to 5000	< 10	–
O=C(NC1(C(=O)O)C2CC3CC(C2)CC1C3)c1cnc(-c2cn(C3CCOCC3)c3cc(O[C@H]4CC[C@@H](N5CC(F)(F)C5)CC4)ccc23)nc1C(F)(F)F (stereo partly shown) [Compound I-614]	< 10	< 10	–
N#CCN1CCC(Oc2ccc3c(c2)C2(CCCCC2)CN3c2ncc(C(=O)NC3(C(=O)O)C4CC5CC(C4)CC3C5)c(C(F)(F)F)n2)CC1 (stereo not shown) [Compound I-521]	10 to 100	< 10	–
O=C(NC1(C(=O)O)C2CC3CC(C2)CC1C3)c1cnc(-c2cn(C3CCC(F)(F)CC3)c3nc(OC4CCN(c5ncccn5)CC4)ccc23)nc1C(F)(F)F (stereo not shown) [Compound I-228]	–	–	EC50 [1, 4]: 36 nM; EC50 (RSV A2 strain; [5]): 1.3 nM
O=C(NC1(C(=O)O)C2CC3CC(C2)CC1C3)c1cnc(N2CC3(CCOCC3)c3cc(O[C@H]4CC[C@H](n5cccn5)CC4)ccc32)nc1C(F)(F)F (stereo partly shown) [Compound I-193]	< 10	< 10	–
CN1CCN(CCOc2ccc3c(c2)C2(CCOCC2)CN3c2ncc(C(=O)NC3(C(=O)O)C4CC5CC(C4)CC3C5)c(C(F)(F)F)n2)CC1 (stereo not shown) [Compound I-204]	10 to 100	< 10	–
C/C(=N\OC1CC(F)(F)C1)c1ccc2c(c1)C1(CCCCC1)CN2c1ncc(C(=O)NC2(C(=O)O)C3CC4CC(C3)CC2C4)c(C(F)(F)F)n1 (single isomer, unassigned) [Compound I-477]	100 to 5000	10 to 100	–
O=C(NC1(C(=O)O)C2CC3CC(C2)CC1C3)c1ccc(-c2cn(C3CCC(F)(F)CC3)c3cc(OC4CCN(c5ncccn5)CC4)ccc23)nc1C(F)(F)F (stereo not shown) [Compound I-162]	–	–	EC50 [1, 4]: 3.3 nM; EC50 (RSV A2 strain; [5]): 0.88 nM
CC(F)(F)c1nc(N2CC3(CCCCC3)c3cc(OC4CCN(c5nc(C(F)(F)F)ns5)CC4)ccc32)ncc1C(=O)NC1(C(=O)O)C2CC3CC(C2)CC1C3 (stereo not shown) [Compound I-536]	10 to 100	< 10	–
CC(F)(F)CN1CCC(Oc2ccc3c(-c4ncc(C(=O)NC5(C(=O)O)C6CC7CC(C6)CC5C7)c(C(C)(F)F)n4)cn(C4CCC(F)(F)CC4)c3c2)CC1 (stereo not shown) [Compound I-583]	< 10	< 10	–
CC(C)n1cc(-c2ncc(C(=O)NC3(C(=O)O)C4CC5CC(C4)CC3C5)c(C(C)(F)F)n2)c2ccc(O[C@H]3CC[C@H](N4CC(F)(F)C4)CC3)cc21 (stereo partly shown) [Compound I-618]	< 10	< 10	–
CC(F)(F)c1nc(N2CC3(CCOCC3)c3cc(O[C@H]4CC[C@H](Nc5ncc(F)cn5)CC4)ccc32)ncc1C(=O)NC1(C(=O)O)C2CC3CC(C2)CC1C3 (stereo partly shown) [Compound I-553]	10 to 100	< 10	–
CC(F)(F)c1nc(N2CC3(CCOCC3)c3cc(OC4CCN(CC(F)(F)F)CC4)ncc32)ncc1C(=O)NC1(C(=O)O)C2CC3CC(C2)CC1C3 (stereo not shown) [Compound I-526]	< 10	< 10	–

SMILES	EC50 [1, 2] [nM]	EC50 (RSV A2 strain; [3]) [nM]	further results
O=C(NC1(C(=O)O)C2CC3CC(C2)CC1C3)c1cnc(N2CC3(CCOCC3)c3cc(-n4ncc5c4CCN(CC(F)(F)F)C5)ccc32)nc1C(F)(F)F (stereo not shown) [Compound I-472]	< 10	< 10	–
COc1cccc(COc2ccc3c(c2)CCN3c2ncc(C(=O)NC3(C(=O)O)CCCCC3)c(C(F)(F)F)n2)c1 [Compound I-3]	10 to 100	10 to 100	–
N#Cc1cnc(N2CCC(Oc3ccc4c(c3)C3(CCCCC3)CN4c3ncc(C(=O)NC4(C(=O)O)C5CC6CC(C5)CC4C6)c(C(F)(F)F)n3)CC2)nc1 (stereo not shown) [Compound I-520]	< 10	< 10	–
COCCCCOc1ccc2c(c1)CCN2c1ncc(C(=O)NC2(C(=O)O)CCCCC2)c(C(F)(F)F)n1 [Compound I-2]	100 to 5000	10 to 100	–
CC(F)(F)c1nc(-c2cn(C3CCOCC3)c3cc(O[C@H]4CC[C@H](N5CC(F)(F)C5)CC4)ccc23)ncc1C(=O)NC1(C(=O)O)C2CC3CC(C2)CC1C3 (stereo partly shown) [Compound I-572]	< 10	< 10	–
CC(C)n1cc(-c2ncc(C(=O)NC3(C(=O)O)C4CC5CC(C4)CC3C5)c(C(F)(F)F)n2)c2ccc(O[C@H]3CC[C@H](N4CC(F)(F)C4)CC3)cc21 (stereo partly shown) [Compound I-616]	< 10	< 10	–
O=C(NC1(C(=O)O)C2CC3CC(C2)CC1C3)c1cnc(-c2cn(C3CCOCC3)c3cc(OC4CCN(c5ncc(F)cn5)CC4)ccc23)nc1C(F)(F)F (stereo not shown) [Compound I-431]	< 10	< 10	–
O=C(NC1(C(=O)O)C2CC3CC(C2)CC1C3)c1cnc(-c2cn(C3CCC4(CC3)COC4)c3cc(OC4CCN(c5ncc(F)cn5)CC4)ccc23)nc1C(F)(F)F (stereo not shown) [Compound I-437]	< 10	< 10	–
CC(F)(F)c1nc(N2CC3(CCOCC3)c3cc(OC4CCN(CC(F)F)CC4)ccc32)ncc1C(=O)NC1(C(=O)O)C2CC3CC(C2)CC1C3 (stereo not shown) [Compound I-559]	< 10	< 10	–
CC(F)(F)c1nc(N2CC3(CCOCC3)c3cc(-n4ncc5c4CCN(CC(F)(F)F)C5)ncc32)ncc1C(=O)NC1(C(=O)O)C2CC3CC(C2)CC1C3 (stereo not shown) [Compound I-602]	< 10	< 10	–
CC(F)(F)c1nc(N2CC3(CCOCC3)c3cc(OC4CCN(CC(F)(F)F)CC4)ccc32)ncc1C(=O)NC1(C(=O)O)C2CC3CC(C2)CC1C3 (stereo not shown) [Compound I-465]	< 10	< 10	–
CC(F)(F)c1nc(N2CC3(CC3)c3cc(OC4CCN(c5ncc(F)cn5)CC4)ccc32)ncc1C(=O)NC1(C(=O)O)C2CC3CC(C2)CC1C3 (stereo not shown) [Compound I-603]	< 10	< 10	–
O=C(NC1(C(=O)O)CCCCC1)c1cnc(N2CC3(CCOCC3)c3cc(OCCC4CCOCC4)ccc32)nc1C(F)(F)F [Compound I-56]	10 to 100	< 10	–
O=C(NC1(C(=O)O)C2CC3CC(C2)CC1C3)c1cnc(N2CC3(CCCCC3)c3cc(O[C@@H]4CCN(CC(F)(F)F)C4)ccc32)nc1C(F)(F)F (stereo partly shown) [Compound I-518]	< 10	< 10	–
O=C(NC1(C(=O)O)C2CC3CC(C2)CC1C3)c1cnc(N2CC3(CCCC3)c3cc(OC4CCN(CC(F)(F)F)CC4)ccc32)nc1C(F)(F)F (stereo not shown) [Compound I-474]	10 to 100	< 10	–
O=C(NC1(C(=O)O)CCCCC1)c1cnc(N2CCc3cc(OCCc4ccccc4)ccc32)nc1C(F)(F)F [Compound I-4]	100 to 5000	10 to 100	–
O=C(NC1(C(=O)O)C2CC3CC(C2)CC1C3)c1cnc(N2CC3(CCOCC3)c3cc(OC4CCN(c5ncc(F)cn5)CC4)ncc32)nc1C(F)(F)F (stereo not shown) [Compound I-402]	< 10	< 10	–
O=C(NC1(C(=O)O)C2CC3CC(C2)CC1C3)c1cnc(N2CC3(CCCCC3)c3cc(C(=O)N4CCN(c5ncccn5)CC4)ccc32)nc1C(F)(F)F (stereo not shown) [Compound I-444]	< 10	< 10	–
CC(F)(F)CN1CCC(Oc2ccc3c(c2)C2(CCOCC2)CN3c2ncc(C(=O)NC3(C(=O)O)C4CC5CC(C4)CC3C5)c(C(C)(F)F)n2)CC1 (stereo not shown) [Compound I-548]	< 10	< 10	–
